Experiment: log P value (octanol-water partition coefficient) of the compound capable of mending the humidity dependence
Assay type: physicochemical
Settings: octanol-water partition coefficient of the humidity-dependence mending compound used in the second retardation film
From the text: Log P of the compound capable of mending the humidity dependence for use in the invention is preferably from 3 to 10, more preferably from 3 to 7. Using the compound capable of mending the humidity dependence having log P that falls within the above range may reduce the humidity dependence of Re not causing a face condition trouble such as bleeding out, etc.
The log P value means an octanol-water partition coefficient, and it may be determined according to the flask shaking method described in JIS (Japanese Industrial Standards) Z7260-107 (2000). In place of determining it through actual measurement, the octanol-water partition coefficient (log P value) may be estimated according to a computational chemical method or an experimental method. As the computational method, preferably employed are a Crippen's fragmentation method (J. Chem. Inf. Comput. Sci., 27, 21 (1987)), a Viswanadhan's fragmentation method (J. Chem. Inf. Comput. Sci., 29, 163 (1989)), a Broto's fragmentation method (Eur. J. Med. Chem.-Chim. Theor., 19, 71 (1984)). Particularly, the Crippen's fragmentation method (J. Chem. Inf. Comput. Sci., 27, 21 (1987)) is preferably employed. In case where the log P value of a certain compound differs depending on the measurement method or the computational method employed, the compound is preferably judged according to a Crippen's fragmentation method as to whether or not it could fall within the preferred range.

logP | Structure (SMILES)
3.7 | O=C(Oc1ccccc1)[C@H]1CC[C@H](C(=O)Oc2ccccc2)CC1 [Compound A-1]
5.8 | CCc1ccc(OC(=O)[C@H]2CC[C@H](C(=O)Oc3ccc(CC)cc3)CC2)cc1 [Compound A-3]
5.7 | Cc1ccc(OC(=O)[C@H]2CC[C@H](C(=O)Oc3ccc(C)cc3C)CC2)c(C)c1 [Compound A-6]
11 | CCCCCCCc1ccc(OC(=O)[C@H]2CC[C@H](C(=O)Oc3ccc(CCCCCCC)cc3)CC2)cc1 [D]

From patent publication US7990502B2, “Liquid-crystal display device” (Fujifilm Corporation, priority 2007, dated 2011)
